The source of these data is PubChem BioAssay (NCI).

The subject of the experiment is P388 leukemia. The experiment is described as follows: NCI tumour cell line growth inhibition, 48 h.

SMILES strings stand for the structures.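 Interpolation was linear, between the two tested concentrations surrounding the appropriate level; five concentrations were tested over 48 hours in 96-well plates. TGI is the concentration that stops growth completely.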

In turn, `CNC(=O)OCc1nc(SSC(C)(C)C)n(C)c1COC(=O)NC` gave a TGI greater than 100 µM. In the case of `N[C@H](C(=O)O)[C@@H]1CC(Cl)=NO1`, the TGI was found to be 16 µM.
